The assay deals with influenza A/Wyoming/03/2003 (H3N2). Nature of the assay: Plaque reduction assay in MDCK cell monolayers. To be noted: 5 μg/mL drug control, 72 h. It counts as cell-based, influenza virus. A general note: Plaques are areas of infected cells; plaque reduction assays count them against a control.

Turning to `NC(=O)c1ncn([C@@H]2O[C@H](CO)[C@@H](O)[C@H]2O)n1` [Ribavirin, ribavirin], the plaque formation entry is listed as “completely inhibits the formation of plaques”.

The values above are taken from US20140274883A1, “NOVEL ANTIVIRAL COMPOUNDS FROM MARINE EXTRACTS” (priority 2008, published 2014).
